Values of other authors in patent US10828380B2, “Conjugate of polysarcosine and NIR contrast agent for photoacoustic imaging” (CANON KABUSHIKI KAISHA, priority 2015, dated 2020).

## CC1(C)C(/C=C/C=C/C=C/C=C2/N(CCCCS(=O)(=O)[O-])c3ccc4ccccc4c3C2(C)C)=[N+](CCCCS(=O)(=O)[O-])c2ccc3ccccc3c21.[Na+] [ICG, indocyanine green]
  half-life in blood: about several minutes
